These results are taken from paper PMC4019636, “Rational Design of Berberine-Based FtsZ Inhibitors with Broad-Spectrum Antibacterial Activity” (PLoS ONE, 2014).

Read-outs that look alike come from different tables or passages of the source.

The test system of one assay is E. faecium ATCC 49624. As to the kind of experiment: Antimicrobial susceptibility assay (broth microdilution MIC). It counts as cell-based. To be noted: Enterococcus faecium, ATCC49624; E. faecium ATCC 49624; brain heart infusion broth, 18 h at 37°C; growth inhibited by ≥90%; read-out: MIC. From the text:
(§1) The bacterial strains S. aureus ATCC 29213, S. aureus ATCC 29247, S. aureus ATCC BAA-41, E. faecium ATCC 49624, E. faecium ATCC 700221, E. faecalis ATCC 29212, S. epidermidis ATCC 12228, E. coli ATCC 25922, and K. pneumoniae ATCC BAA-1144 used in the antimicrobial susceptibility assays were purchased from American Type Culture Collection (ATCC, USA). B. subtilis strain 168 was already available in our in-house collection. E. coli JM109 WM647 was kindly provided by Dr. W. Margolin (University of Texas-Houston Medical School). FM 4–64 was purchased from Invitrogen (Eugene, Oregon). All other chemicals and reagents were purchased from Sigma-Aldrich. Stock solutions were prepared in DMSO. The final percentage of DMSO in the assays was 1% (v/v) for all experiments.
(§2) Antimicrobial susceptibility tests were conducted in 96-well microplates using the broth microdilution procedure described in the Clinical and Laboratory Standards Institute (CLSI) guidelines. […] After incubation for 18 h at 37°C, the absorbance at 600 nm (A600) was recorded using a microplate reader (Bio-Rad laboratory Ltd., UK) and the percentage of bacterial cell inhibition with respect to vehicles (1% DMSO) was calculated. The MIC was defined as the lowest compound concentration at which the growth of bacteria was inhibited by ≥90%. Three independent assays were performed for each test.
For orientation: In broth dilution the organism is exposed to a series of concentrations in liquid medium.

For a further assay, the system named is E. faecium ATCC 700221. Described as above. As to conditions: Enterococcus faecium, ATCC700221; E. faecium ATCC 700221 (vancomycin-resistant); brain heart infusion broth, 18 h at 37°C; growth inhibited by ≥90%; read-out: MIC. The class given is cell-based.
Excerpt: as §1, §2

Assay [1] concerns antibiotic-susceptible and antibiotic-resistant S. aureus strains. As to the kind of experiment: Antimicrobial susceptibility assay, summary over S. aureus strains. The class given is cell-based. To be noted: Staphylococcus aureus.
Excerpt: as §1
(§3) Antimicrobial susceptibility tests were conducted in 96-well microplates using the broth microdilution procedure described in the Clinical and Laboratory Standards Institute (CLSI) guidelines. Cation-adjusted Mueller Hinton broth for S. aureus strain ATCC 29213, methicillin-resistant S. aureus strain ATCC BAA-41 and ampicillin-resistant S. aureus strain ATCC 29247, or brain heart infusion broth for antibiotic-susceptible E. faecium strain ATCC 49624 and vancomycin-resistant E. faecium strain ATCC 700221, or Mueller Hinton broth for antibiotic-susceptible strains B. subtilis strain 168, E. faecalis strain ATCC 29212 and E. coli strain ATCC 25922 were used in the assays. After incubation for 18 h at 37°C, the absorbance at 600 nm (A600) was recorded using a microplate reader (Bio-Rad laboratory Ltd., UK) and the percentage of bacterial cell inhibition with respect to vehicles (1% DMSO) was calculated. The MIC was defined as the lowest compound concentration at which the growth of bacteria was inhibited by ≥90%. Three independent assays were performed for each test.

The target of the next assay is T1, S. aureus FtsZ (Staphylococcus aureus, UniProt P0A031).
T1 construct: made in house; host or cells: E. coli BL21(DE3)
T1 sequence (P0A031 1-390): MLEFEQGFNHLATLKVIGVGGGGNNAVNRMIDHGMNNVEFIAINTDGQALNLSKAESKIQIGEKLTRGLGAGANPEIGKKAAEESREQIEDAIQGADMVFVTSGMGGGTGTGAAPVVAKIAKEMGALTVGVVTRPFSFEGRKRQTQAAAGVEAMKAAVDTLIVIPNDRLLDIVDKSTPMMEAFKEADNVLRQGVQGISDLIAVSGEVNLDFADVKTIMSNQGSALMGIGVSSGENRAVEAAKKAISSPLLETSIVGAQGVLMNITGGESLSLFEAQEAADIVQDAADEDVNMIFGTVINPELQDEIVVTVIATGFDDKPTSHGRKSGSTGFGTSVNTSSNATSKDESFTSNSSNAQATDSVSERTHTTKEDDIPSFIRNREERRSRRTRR
As to the kind of experiment: GTPase activity assay. The class given is biochemical. To be noted: for GTPase activity of S. aureus FtsZ: 0.44 in its absence. How it is done:
E. coli BL21(DE3) cells were transformed with the pRSET-A-S vector carrying S. aureus FtsZ with a 6-histidine tag attached at its N-terminus under the control of a T7 promoter. […] When the OD600 reached 0.8, protein expression was induced with 0.4 mM isopropyl-β-D-thiogalactopyranoside (IPTG) for 4 h. Cells were harvested by centrifugation at 9000 rpm for 20 min at 4°C. The cell pellet was resuspended in 20 mL of solubilization buffer (50 mM Tris-HCl, 150 mM NaCl, 1 mM PMSF and 1 mM EDTA, pH 7.4) and then lysed with 1 mg/mL of lysozyme. The mixture was incubated for 1 h on ice. The cells were disrupted by sonication and the crude lysate obtained was centrifuged at 13,000 rpm for 1 h at 4°C. The supernatant containing 6-histidine tagged S. aureus FtsZ was collected and loaded onto a nickel charged HiTrap chelating column pre-equilibrated with starting buffer (20 mM sodium phosphate buffer, 0.5 M NaCl, pH 7.4). The column was then washed with 8 column volumes of the starting buffer to remove the unbound proteins, and the histidine-tagged enzyme was eluted by a linear gradient of 0−0.2 M imidazole. Fractions containing S. aureus FtsZ were pooled, buffer-exchanged with 20 mM NH4HCO3 (pH 8.0) at 4°C, lyophilized, and stored at −20°C. A stock solution of S. aureus FtsZ for the subsequent bioassay was prepared from the lyophilized powder.
The GTPase activity of recombinant S. aureus FtsZ was measured in 96-well microplates using a CytoPhos phosphate assay Biochem Kit (Cytoskeleton, USA) according to an optimized protocol and the manufacturer’s instructions. S. aureus FtsZ (3.5 µM) was preincubated with vehicle (1% DMSO) or different concentrations of each test compound in 50 mM 4-morpholinepropanesulfonic acid buffer (MOPS, pH 6.5) for 10 min at 25°C. Then 5 mM of MgCl2 and 200 mM of KCl were added. Reactions were started with the addition of 500 µM GTP and incubated at 37°C. After 30 min, the reactions were quenched by adding 100 µL of Cytophos reagent for 10 min. Inorganic phosphate was quantified by measuring the absorbance at 650 nm with a microplate reader (Bio-Rad laboratory Ltd., UK). The relative IC50 values were determined by nonlinear regression using a sigmoidal concentration-response curve in the Origin software v6. For the rate of GTPase activity of S. aureus FtsZ, different concentrations of fresh prepared FtsZ (3, 6, 9, 12, 15 µM) was preincubated with vehicle (1% DMSO) or 25 µM, 50 µM compound 2, following the same condition. The data were plotted via Origin software v6. Three independent assays were performed for all the tests.

Assay [2] deals with Gram-negative strains E. coli and K. pneumoniae (expressing AmpC β-lactamase). As to the kind of experiment: Antimicrobial susceptibility assay, summary over Gram-negative strains. The class given is cell-based. As to conditions: Escherichia coli, read-out: MIC values.
Excerpt: as §1, §3

[3] abbreviates: FtsZ 3.5 µM, 500 µM GTP, 30 min at 37°C, MOPS pH 6.5, read-out: IC50±SEM, S. aureus FtsZ GTPase activity (relative IC50).
[4] abbreviates: Gram-negative strains E. coli and K. pneumoniae.

On to `COc1ccc(OCCCOc2c(OC)ccc3cc4[n+](cc23)CCc2cc3c(cc2-4)OCO3)cc1` [Compound 3], for which the MIC with E. faecium ATCC 49624 was 16 µg/mL; with E. faecium ATCC 700221, 16 µg/mL; in assay [1], 2 to 8 µg/mL; in assay [2] (setting [4]), 32 to 128 µg/mL. The IC50 on S. aureus FtsZ (setting [3]) came out at 47.3 ± 4.6 µM.
Turning to `COc1ccc2cc3[n+](cc2c1OCCCOc1ccc(Cl)cc1)CCc1cc2c(cc1-3)OCO2` [Compound 2], the MIC is 4 µg/mL in the assay with E. faecium ATCC 49624, 4 µg/mL in the assay with E. faecium ATCC 700221, 2 to 8 µg/mL in assay [1] and 32 to 128 µg/mL in assay [2] (setting [4]). Besides, at S. aureus FtsZ (setting [3]), the IC50 is 37.8 ± 3.8 µM. The “GTPase activity of S. aureus FtsZ” value at S. aureus FtsZ (in the presence of 25 µM compound) worked out at 0.24 GTP/FtsZ/min; on S. aureus FtsZ (in the presence of 50 µM compound) it was 0.1 GTP/FtsZ/min.
Take `COc1ccc2cc3[n+](cc2c1OCCCOc1ccc([N+](=O)[O-])cc1)CCc1cc2c(cc1-3)OCO2` [Compound 5]: the MIC is 8 µg/mL with E. faecium ATCC 49624, 8 µg/mL with E. faecium ATCC 700221, 2 to 8 µg/mL in assay [1] and 32 to 128 µg/mL in assay [2] (setting [4]). For the same molecule, the IC50 at S. aureus FtsZ (setting [3]) worked out at 43.4 ± 5.2 µM.
For the molecule `COc1ccc2cc3[n+](cc2c1OC)CCc1cc2c(cc1-3)OCO2` [Berberine, Berberine chloride], the MIC was over 196 µg/mL with E. faecium ATCC 49624, over 196 µg/mL in the assay with E. faecium ATCC 700221, 128 to 196 µg/mL in assay [1] and over 500 µg/mL in assay [2]. Further, the midpoint of inhibition at S. aureus FtsZ, the IC50, lay at 272 ± 46.6 µM.
For `COc1ccc2cc3[n+](cc2c1OCCCCOc1ccccc1)CCc1cc2c(cc1-3)OCO2` [Compound 6], the MIC in the assay on E. faecium ATCC 49624 is 8 µg/mL; with E. faecium ATCC 700221, 8 µg/mL; in assay [1] it was 2 to 8 µg/mL; in assay [2] (setting [4]), 32 to 128 µg/mL. The IC50 at S. aureus FtsZ (setting [3]) came out at 63.5 ± 4.7 µM.
For the molecule `COc1ccc2cc3[n+](cc2c1OCCCOc1ccccc1C)CCc1cc2c(cc1-3)OCO2` [Compound 4], the MIC was 8 µg/mL with E. faecium ATCC 49624, 8 µg/mL in the assay with E. faecium ATCC 700221, 2 to 8 µg/mL in assay [1] and 32 to 128 µg/mL in assay [2] (setting [4]). Further, the IC50 on S. aureus FtsZ (setting [3]) is 63.7 ± 4.8 µM.
`COc1ccc2cc3[n+](cc2c1OCCCOc1ccccc1)CCc1cc2c(cc1-3)OCO2` [Compound 1]: the MIC was 8 µg/mL with E. faecium ATCC 49624, 8 µg/mL in the assay on E. faecium ATCC 700221, 2 to 8 µg/mL in assay [1] and 32 to 128 µg/mL in assay [2] (setting [4]). Further, the IC50 on S. aureus FtsZ (setting [3]) was determined as 56.8 ± 10.4 µM.

As usually defined, the MIC is the lowest concentration found to suppress growth. What is called IC50 is the point on the concentration scale where inhibition reaches its midpoint.
